This is an account of results in PMC4347201, “The jasmonate-responsive GTR1 transporter is required for gibberellin-mediated stamen development in Arabidopsis” (Nature Communications, 2015).

Series [1] has as its target T1, GTR2/NPF2.11 (Arabidopsis thaliana, UniProt Q9LV10).
T1 construct: forward primer starts ATGGAGAGAAAGCCTCTTG
T1 sequence (Q9LV10 1-616): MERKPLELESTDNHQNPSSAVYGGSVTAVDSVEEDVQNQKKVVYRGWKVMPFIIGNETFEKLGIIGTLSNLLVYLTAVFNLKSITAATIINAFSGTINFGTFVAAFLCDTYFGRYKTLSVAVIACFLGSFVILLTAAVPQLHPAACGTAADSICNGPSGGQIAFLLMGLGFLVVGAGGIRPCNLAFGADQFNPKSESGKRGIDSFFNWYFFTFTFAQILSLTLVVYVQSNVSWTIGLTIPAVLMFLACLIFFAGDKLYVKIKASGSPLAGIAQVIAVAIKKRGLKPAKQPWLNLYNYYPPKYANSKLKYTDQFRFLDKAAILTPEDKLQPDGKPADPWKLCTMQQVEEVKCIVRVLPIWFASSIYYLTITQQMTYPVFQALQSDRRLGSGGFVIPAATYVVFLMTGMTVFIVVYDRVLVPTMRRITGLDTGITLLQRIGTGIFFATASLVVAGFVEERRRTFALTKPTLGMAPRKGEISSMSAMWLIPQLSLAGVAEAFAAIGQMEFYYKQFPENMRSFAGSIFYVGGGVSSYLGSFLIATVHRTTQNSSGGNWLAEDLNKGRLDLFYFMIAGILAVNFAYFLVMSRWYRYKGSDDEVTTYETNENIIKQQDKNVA
The series is described as follows: uptake into Xenopus oocytes, UPLC/TOFMS. To be noted: pH 5, 24 h uptake, kulori-based buffer. The series is classed as cell-based.

Substrate in series [2]: C=C1C[C@]23C[C@@]1(O)CC[C@H]2[C@@]12C=C[C@H](O)[C@@](C)(C(=O)O1)[C@H]2[C@@H]3C(=O)O
The experiment in a line: uptake into Xenopus oocytes, UPLC/TOFMS. Type of series: cell-based, Arabidopsis thaliana. The conditions noted are these: pH 5.0, 17 °C, 24 h uptake, kulori-based buffer, 1-2,000 μM GA3.

With `C=C1C[C@]23C[C@@]1(O)CC[C@H]2[C@@]12C=C[C@H](O)[C@@](C)(C(=O)O1)[C@H]2[C@@H]3C(=O)O` [GA3], in series [1], the “uptake into Xenopus oocytes, UPLC/TOFMS” value is “GTR2, a close homologue of GTR1, also transported GA3 into oocytes”.

B1: GTR1/NPF2.10 (Arabidopsis thaliana) (protein)
chain: MKSRVILNHRDRRDKNHNNNNTNHYTQVDTMERKPLEVEPSTTTTNTDVVDSFEEEQRKIVYRGWKVMPFIIGNETFEKLGIIGTLSNLLVYLTSVFNLKSYTAATIINAFSGTINFGTFIAAFLCDTYFGRYKTLSVAVIACFLGSFVILLTAAIPSLHPVACGNKISCEGPSVGQILFLLMGLGFLVVGAGGIRPCNLAFGADQFNPKSESGKKGINSFFNWYFFTFTFAQIISLTAVVYIQSNVSWTIGLIIPVALMFLACVIFFAGDRLYVKVKASGSPLAGIARVIAAAIKKRGLKPVKQPWVNLYNHIPSNYANTTLKYTDQFRFLDKAAIMTPEEKLNSDGTASDPWKLCTLQQVEEVKCIVRVIPIWFASTIYYLAITIQMTYPVFQALQSDRRLGSGGFRIPAATYVVFLMTGMTVFIIFYDRVLVPSLRRVTGLETGISLLQRIGAGFTFAIMSLLVSGFIEERRRNFALTKPTLGMAPRTGEISSMSALWLIPQLTLAGIAEAFAAIGQMEFYYKQFPENMKSFAGSIFYVGAGVSSYLASFLISTVHRTTAHSPSGNWLAEDLNKAKLDYFYFMLTGLMVVNMAYFLLMARWYRYKGGNDEDITEIETNEEETKQQQLQDKNSV
Regarding B1, the Km – broadly, the concentration of substrate that gives half-maximal velocity – in series [2] was found to be 301.25 ± 225.46 µM.
